Assay results: ChEMBL document CHEMBL2150973, “Dual inhibitors for aspartic proteases HIV-1 PR and renin: advancements in AIDS-hypertension-diabetes linkage via molecular dynamics, inhibition assays, and binding free energy calculations” (J Med Chem, 2012)

Test system: Human immunodeficiency virus 1
Assay: microbe, parasite or virus in culture

CC(C)CN(C[C@@H](O)[C@H](Cc1ccccc1)NC(=O)O[C@H]1CO[C@H]2OCC[C@H]21)S(=O)(=O)c1ccc(N)cc1
IC90: 4.1 nM
